Results: patent US20110166077A9, “COMBINED THERAPY AGAINST TUMORS COMPRISING SUBSTITUTED ACRYLOYL DISTAMYCIN DERIVATIVES AND RADIOTHERAPY” (Pharmacia Italia S.p.A., priority 2002, published 2011)
Several values for one entry are separate records, joined by “and”; a condition that tells them apart may be missing. Identical values can stand only once. Marks after values point to notes of the source that are not given here.

Tests used:
[1] = test system: SQ20B (radiation-resistant human squamous cell carcinoma of the larynx) cell line; assay: in vitro clonogenic assay, drug combined with ionizing radiation, SQ20B; format: cell-based; conditions: for C20 drug concentration corresponding to 20% cell survival / C80 drug concentration corresponding to 80% cell survival: drug alone, 2 h treatment; for Sensitization Ratio SR, Values for each culture: simultaneous schedule (2 h drug, 10 min irradiation at start of 2nd hour), SR<1 = radiosensitisation; for Sensitization Ratio SR, Mean of duplicates: simultaneous schedule
Protocol: (§1) The remarkable radiosensitisation effect exerted by the α-bromo- or α-chloro-acryloyl-distamycin derivatives, in particular the compounds of formula (I), is shown according to in vitro clonogenic assays on SQ20B (radiation-resistant human squamous cell carcinoma of the larynx) and A431 (human vulval carcinoma) cell lines. In this respect, two different schedule treatments were evaluated either comprising simultaneous exposure to the tested compound of formula (I) and to radiation, or sequential exposure to both these cytotoxic agents in any order, that is drug/radiation or radiation/drug (see details below). As control, the effect of cisplatin in combination with radiotherapy has been tested in the same operative conditions.
(§2) To define a Sensitization Ratio (SR), the clonogenic survival of cells being treated with a combination of irradiation and drug exposure (SX+D) was compared with the product of survival for drug alone (SD) and irradiation alone (SX), as follows SR=SX+D/SD*SX
(§3) From the above, it is clear to the skilled person that if both radiation and drug exerted their cytotoxic effect independently from each other, SR values would be close to 1 whereas, on the contrary, a radiosensitisation effect indicating a synergism between ionizing radiation and drug is characterized by SR values lower than 1 (SR<1).
(§4) For both compounds Compound A and cisplatin, exposures were simultaneous to ionizing radiation in both SQ20B and A431 cell lines. The schedule consisted of 2 h drug treatment with a period of irradiation (10 minutes) starting at the beginning of the 2nd hour of treatment.
(§5) Four data sets for each of Compound A and cisplatin, in each cell line were obtained (see table 1) comprising duplicates of two different drug concentration chosen to yield cytotoxicity values corresponding to 80% (C80) and 20% (C20) survival for treatment with the drug alone. […]

[2] = test system: A431 (human vulval carcinoma) cell line; assay: in vitro clonogenic assay, drug combined with ionizing radiation, A431; format: cell-based; conditions: for C20 drug concentration corresponding to 20% cell survival / C80 drug concentration corresponding to 80% cell survival: drug alone, 2 h treatment; for Sensitization Ratio SR, Values for each culture: simultaneous schedule (2 h drug, 10 min irradiation at start of 2nd hour), SR<1 = radiosensitisation; for Sensitization Ratio SR, Mean of duplicates: simultaneous schedule
Protocol: as §1, §2, §3, §4, §5

[3] = drug at C20 (Compound A 350 ng/ml, cisplatin 6.5 μM)
[4] = drug at C80 (Compound A 50 ng/ml, cisplatin 0.4 μM)
[5] = drug at C20 (Compound A 90 ng/ml, cisplatin 5.0 μM)
[6] = drug at C80 (Compound A 20 ng/ml, cisplatin 0.8 μM)

Row | SMILES | Sensitization Ratio SR / radiosensitisation effect ([1]; combination with radiotherapy, summary over concentrations) | C20 drug concentration corresponding to 20% cell survival [1] | C80 drug concentration corresponding to 80% cell survival [1] | Sensitization Ratio SR, Values for each culture ([1]; drug at C20 (Compound A 350 ng/ml, cisplatin 6.5 μM), hydrochloride) | Sensitization Ratio SR, Values for each culture ([1]; drug at C80 (Compound A 50 ng/ml, cisplatin 0.4 μM), hydrochloride) | Sensitization Ratio SR, Mean of duplicates [1, 3] | Sensitization Ratio SR, Mean of duplicates [1, 4] | C20 drug concentration corresponding to 20% cell survival [2] | C80 drug concentration corresponding to 80% cell survival [2] | Sensitization Ratio SR, Values for each culture ([2]; drug at C20 (Compound A 90 ng/ml, cisplatin 5.0 μM), hydrochloride) | Sensitization Ratio SR, Values for each culture ([2]; drug at C80 (Compound A 20 ng/ml, cisplatin 0.8 μM), hydrochloride) | Sensitization Ratio SR, Mean of duplicates [2, 5] | Sensitization Ratio SR, Mean of duplicates [2, 6] | Sensitization Ratio SR, Values for each culture [1, 3] | Sensitization Ratio SR, Values for each culture [1, 4] | Sensitization Ratio SR, Values for each culture [2, 5] | Sensitization Ratio SR, Values for each culture [2, 6]
1 | C=C(Br)C(=O)Nc1cc(C(=O)Nc2cc(C(=O)Nc3cc(C(=O)Nc4cc(C(=O)NCCNC(=N)N)n(C)c4)n(C)c3)n(C)c2)n(C)c1.Cl [Compound A, N-[5-[[[5-[[[2-[(animoiminomethyl)amino]ethyl]amino]carbonyl]-1-methyl-1H-pyrrol-3-yl]amino]carbonyl]-1-methyl-1H-pyrrol-3-yl]-4-[[[4-[(2-bromo-1-oxo-2-propenyl)amino]-1-methyl-1H-pyrrol-2-yl]carbonyl]amino]-1-methyl-1H-pyrrole-2-carboxamide hydrochloride] | lower than 1 | 350 (C20)^(d) ng/ml | 50 (C80)^(c) ng/ml | 0.55 and 0.46 | 0.84 and 0.85 | C20 0.50 | C80 0.85 | 90 (C20) ng/ml | 20 (C80) ng/ml | 0.33 and 0.40 | 0.65 and 0.59 | C20 0.37 | C80 0.62 | – | – | – | –
2 | N.N.[Cl][Pt][Cl] [cisplatin, reference compound] | – | 6.5 (C20) μM | 0.4 (C80) μM | – | – | C20 0.77 | C80 0.80 | 5.0 (C20) μM | 0.8 (C80) μM | – | – | C20 0.97 | C80 0.96 | 0.72 and 0.81 | 0.78 and 0.82 | 1.08 and 0.86 | 1.02 and 0.84
